Strand notation (5' to 3'): a small letter for the sugar, then the base; units joined by * are phosphorothioate-linked, units joined directly phosphodiester-linked; [ ] holds rarer units or linkages, { } end groups; capitals alone tell only the bases. {(C15)2U} = uridine bearing a ketal whose carbon carries two C15 hydrocarbon chains (palmitone ketal); {C8F17} = hydrophobic mono-chain with C8F17 fluorocarbon moiety; d = 2'-deoxy (DNA)
Assays:
TCTP protein = TCTP protein expression by western blot in transfected PC-3 cells; assay type: cell-based, human; details: for inhibition of TCTP protein expression over a long period: 6 days after transfection
Method: The CR prostate cancer cell line PC-3 was purchased from the American Type Culture Collection (Rockville, Md., USA). The cells were maintained in Dulbecco's Modified Eagle's Medium (Invitrogen, Cergy Pontoise, France), supplemented with 10% fetal calf serum (FCS).
Prostatic cell line were transfected with ASO#15PD, ASO#15PTO, LASO#15PD, LASO#15PTO and LASO#15LNA at various concentrations (from 30 nM to 100 nM), in OptiMEM® medium (Invitrogen), without serum and in the presence or not of Oligofectamine™ transfection reagent (Invitrogen), according to the manufacturer's instructions.
Serum was added 4 hours after transfection. Two or three days after transfection, the level of TCTP protein expression and GAPDH (used as housekeeping gene) were determined by performing western blotting.
Western Blot analysis was performed as described previously (Rocchi et al., 2004, Cancer Res. 64:6595-602) with 1:2000 rabbit TCTP polyclonal antibody (Abcam Inc., Cambridge, UK). Loading levels were normalized using 1:5000 rabbit anti-glyceraldehyde-3-phosphate dehydrogenase polyclonal (Abcam Inc.).
Prostatic cell line were transfected with FASO#15PTO at 100 nM, in OptiMEM® medium (Invitrogen), without serum and in the presence or not of Oligofectamine™ transfection reagent (Invitrogen), according to the manufacturer's instructions.

cell membrane = assay: Penetration of the cell membrane; assay type: cell-based; details: compared with ASO#15PTO
[1] = tested on: TCTP protein and cell growth; assay: Screening of ASOs targeting TCTP mRNA for the lead sequence; assay type: cell-based, human; details: 15 sequences tested
Method: The design, synthesis and screening of ASOs targeting TCTP mRNA were performed to determine the lead sequence. Among the 27 sequences, 12 were withdrawn (lack of specificity, high GC percentage) and 15 have been tested among which, 3 have been selected (#10 of sequence SEQ ID NO: 2, #14 of sequence SEQ ID NO: 7, #15 of sequence SEQ ID NO: 6) for their efficiency to inhibit TCTP protein and cell growth.

Substance	inhibition of TCTP protein expression over a long period (TCTP protein)	efficiency to inhibit TCTP protein and cell growth [1]	further results
(C15)2U*5′AAC TTG TTT CCT GCA GGT GA3′ (DNA {(C15)2U}*dA*dA*dC*dT*dT*dG*dT*dT*dT*dC*dC*dT*dG*dC*dA*dG*dG*dT*dG*dA) [LASO#15PTO]	strong to complete inhibition		inhibition of TCTP protein expression (TCTP protein; PC-3, in absence of transfection agent, 3 days after transfection): able to inhibit; inhibition of TCTP protein expression (TCTP protein; PC-3, in the presence of Oligofectamine, 30-100 nM, 2 or 3 days after transfection): most efficient; speed of penetrating the cell membrane (cell membrane): more quickly than ASO#15PTO
5′-TGGTTCATGACAATATCGAC-3′ (antisense (5'-TGGTTCATGACAATATCGAC-3'); as printed in the source, key not given here) [#14]		selected	
Flurocarbon 5′AAC TTG TTT CCT GCA GGT GA3′ (DNA {C8F17}-dA*dA*dC*dT*dT*dG*dT*dT*dT*dC*dC*dT*dG*dC*dA*dG*dG*dT*dG*dA) [FASO#15PTO, reference compound]			inhibition of TCTP protein expression (TCTP protein; PC-3, 100 nM, absence of Oligofectamine, 3 days after transfection): incapable of inhibiting; inhibition of TCTP protein expression (TCTP protein; PC-3, 100 nM, presence of Oligofectamine, 3 days after transfection): incapable of inhibiting
5′-AACTTGTTTCCTGCAGGTGA-3′ (antisense (5'-AACTTGTTTCCTGCAGGTGA-3'); as printed in the source, key not given here) [#15]		selected	
ASO#15PTO: DNA of sequence SEQ ID NO: 6 with a phosphorothiorate backbone (DNA dA*dA*dC*dT*dT*dG*dT*dT*dT*dC*dC*dT*dG*dC*dA*dG*dG*dT*dG*dA) [reference compound]	not the case		
5′-ACCAATGAGCGAGTCATCAA-3′ (antisense (5'-ACCAATGAGCGAGTCATCAA-3'); as printed in the source, key not given here) [#10]		selected	

Source: patent US9701962B2, “Hydrophobically modified antisense oligonucleotides comprising a ketal group” (Institut National de la Sante et de la Recherche Medicale …, priority 2013, dated 2017)
